Values after ≈ are worked out from the molar mass of the structure shown.
System: P. falciparum GHA-strain (chloroquine-suceptible)
Experiment: Antiplasmodial activity, Malstat method
Assay type: cell-based, Plasmodium falciparum
Settings: Plasmodium falciparum; GHA-strain, 72 h; TDR hit criterion <0.2 μg/mL; read-out: P. falciparum IC50

Row | Compound | IC50
1 | CC1=C(CC/C(C)=C/CC/C(C)=C/C[n+]2cn(C)c3nc[n-]/c(=N\OCc4ccccc4)c32)C(C)(C)CCC1 [Compound 1l] | 1.3 µg/mL
2 | CC1=C(CC/C(C)=C/CC/C(C)=C/C[n+]2cn(C)c3nc[n-]/c(=N\OC(C)(C)C)c32)C(C)(C)CCC1 [Compound 1m] | 0.69 µg/mL
3 | C=C1CC[C@H]2C(C)(C)CCC[C@]2(C)[C@H]1CC/C(C)=C/Cn1c[n+](C)c2nc[n-]/c(=N\OC)c21 [Compound 1n] | 0.29 µg/mL
4 | C=C1CC[C@H]2C(C)(C)CCC[C@]2(C)[C@H]1CC/C(C)=C/Cn1c[n+](C)c2nc[n-]/c(=N\OC(C)(C)C)c21 [Compound 1o] | 0.94 µg/mL
5 | C=C1CC[C@@H]2C(C)(C)CCC[C@@]2(C)[C@@H]1CC/C(C)=C/Cn1c[n+](C)c2ncnc(N)c21 [Compound 2c, agelasine D] | 0.29 µg/mL
6 | CC(C)=CCC/C(C)=C/CC/C(C)=C/CC/C(C)=C/Cn1cnc2c(N)ncnc21 [Compound 3f, 9-Geranylgeranyladenine] | > 29 µg/mL
7 | CC(C)=CCC/C(C)=C/CC/C(C)=C/CC/C(C)=C/Cn1cnc2ncnc(N)c21 [Compound 4a] | 9.4 µg/mL
8 | CONc1ncnc2ncn(C/C=C(\C)CC/C=C(\C)CC/C=C(\C)CCC=C(C)C)c12 [Compound 4b] | > 28 µg/mL
9 | CC(C)=CCC/C(C)=C/CC/C(C)=C/CC/C(C)=C/Cn1cnc2ncnc(NOCc3ccccc3)c21 [Compound 4c] | 25 µg/mL
10 | CC(C)=CCC/C(C)=C/CC/C(C)=C/CC/C(C)=C/Cn1c[n+](C)c2ccccc21 [Compound 6] | 1 µg/mL
11 | CC(C)=CCC/C(C)=C/CC/C(C)=C/CC/C(C)=C/C[n+]1cnc2c(ncn2C)c1N [Compound 7] | 10 µg/mL
12 | CC(C)=CCC/C(C)=C/CC/C(C)=C/CC/C(C)=C/Cn1cnc2c1c(=N)ncn2C [Compound 8] | 3.37 µg/mL
13 | CC1=C(CC/C(C)=C/CC/C(C)=C/Cn2cnc3c2C(=N)N(C)CN3C)C(C)(C)CCC1 [Compound 9] | > 28 µg/mL

Same assay, conditions: Plasmodium falciparum; same value as 0.29 μg/mL, in μM; read-out: P. falciparum IC50

Row | Compound | IC50
14 | C=C1CC[C@@H]2C(C)(C)CCC[C@@]2(C)[C@@H]1CC/C(C)=C/Cn1c[n+](C)c2ncnc(N)c21 [Compound 2c, agelasine D] | 0.63 µM

System: Leishmania infantum amastigotes (MHOM/ET 67)
Experiment: Antileishmanial activity, amastigotes in primary peritoneal mouse macrophages
Assay type: cell-based
Settings: Leishmania infantum, Macrophage; intracellular amastigotes, 120 h; TDR hit criterion <0.5 μg/mL; read-out: L. infantum IC50
Procedure: Leishmania infantum amastigotes (MHOM/ET 67) were collected from an infected donor hamster and used to infect primary peritoneal mouse macrophages. To determine in vitro antileishmanial activity, 3×10^4 macrophages were seeded in each well of a 96-well plate. After 48 h outgrowth, 5×10^4 amastigotes/well were added and incubated for 2 h at 37 °C. […] Parasite burdens were determined microscopically after Giemsa staining and expressed as a percentage of the blank controls without compound.

Row | Compound | IC50
15 | CC1=C(CC/C(C)=C/CC/C(C)=C/C[n+]2cn(C)c3nc[n-]/c(=N\OCc4ccccc4)c32)C(C)(C)CCC1 [Compound 1l] | 12 µg/mL (≈ 22.7 µM)
16 | CC1=C(CC/C(C)=C/CC/C(C)=C/C[n+]2cn(C)c3nc[n-]/c(=N\OC(C)(C)C)c32)C(C)(C)CCC1 [Compound 1m] | 0.99 µg/mL (≈ 2.01 µM)
17 | C=C1CC[C@H]2C(C)(C)CCC[C@]2(C)[C@H]1CC/C(C)=C/Cn1c[n+](C)c2nc[n-]/c(=N\OC)c21 [Compound 1n] | 0.63 µg/mL (≈ 1.39 µM)
18 | C=C1CC[C@H]2C(C)(C)CCC[C@]2(C)[C@H]1CC/C(C)=C/Cn1c[n+](C)c2nc[n-]/c(=N\OC(C)(C)C)c21 [Compound 1o] | 4 µg/mL (≈ 8.1 µM)
19 | C=C1CC[C@@H]2C(C)(C)CCC[C@@]2(C)[C@@H]1CC/C(C)=C/Cn1c[n+](C)c2ncnc(N)c21 [Compound 2c, agelasine D] | 1.5 µg/mL
20 | CC(C)=CCC/C(C)=C/CC/C(C)=C/CC/C(C)=C/Cn1cnc2c(N)ncnc21 [Compound 3f, 9-Geranylgeranyladenine] | > 29 µg/mL
21 | CC(C)=CCC/C(C)=C/CC/C(C)=C/CC/C(C)=C/Cn1cnc2ncnc(N)c21 [Compound 4a] | > 26 µg/mL
22 | CONc1ncnc2ncn(C/C=C(\C)CC/C=C(\C)CC/C=C(\C)CCC=C(C)C)c12 [Compound 4b] | > 28 µg/mL
23 | CC(C)=CCC/C(C)=C/CC/C(C)=C/CC/C(C)=C/Cn1cnc2ncnc(NOCc3ccccc3)c21 [Compound 4c] | > 33 µg/mL
24 | CC(C)=CCC/C(C)=C/CC/C(C)=C/CC/C(C)=C/Cn1c[n+](C)c2ccccc21 [Compound 6] | 2.5 µg/mL
25 | CC(C)=CCC/C(C)=C/CC/C(C)=C/CC/C(C)=C/C[n+]1cnc2c(ncn2C)c1N [Compound 7] | > 32 µg/mL
26 | CC(C)=CCC/C(C)=C/CC/C(C)=C/CC/C(C)=C/Cn1cnc2c1c(=N)ncn2C [Compound 8] | 13 µg/mL (≈ 30.8 µM)
27 | CC1=C(CC/C(C)=C/CC/C(C)=C/Cn2cnc3c2C(=N)N(C)CN3C)C(C)(C)CCC1 [Compound 9] | > 28 µg/mL
28 | CCCCCCCCCCCCCCCCOP(=O)([O-])OCC[N+](C)(C)C [Miltefosine, reference compound] | 0.24 µg/mL (≈ 0.589 µM)

System: T. cruzi Tulahuen CL2 strain (nifurtimox-sensitive)
Experiment: Antitrypanosomal activity, T. cruzi on MRC-5 cells, β-galactosidase readout
Assay type: cell-based, Trypanosoma cruzi
Settings: Trypanosoma cruzi, TULAHUEN, MRC5, 168 h, read-out: T. cruzi IC50
Procedure: To determine in vitro anti-trypanosomal activity, 4×10^3 MRC-5 cells and 4×10^4 parasites were added to each well of test plate with compound. […] The color reaction was read at 540 nm and absorbance values were expressed as a percentage of the blank controls.

Row | Compound | IC50
29 | CC1=C(CC/C(C)=C/CC/C(C)=C/C[n+]2cn(C)c3nc[n-]/c(=N\OCc4ccccc4)c32)C(C)(C)CCC1 [Compound 1l] | 0.14 µg/mL (≈ 0.265 µM)
30 | CC1=C(CC/C(C)=C/CC/C(C)=C/C[n+]2cn(C)c3nc[n-]/c(=N\OC(C)(C)C)c32)C(C)(C)CCC1 [Compound 1m] | < 0.12 µg/mL
31 | C=C1CC[C@H]2C(C)(C)CCC[C@]2(C)[C@H]1CC/C(C)=C/Cn1c[n+](C)c2nc[n-]/c(=N\OC)c21 [Compound 1n] | 0.49 µg/mL (≈ 1.08 µM)
32 | C=C1CC[C@H]2C(C)(C)CCC[C@]2(C)[C@H]1CC/C(C)=C/Cn1c[n+](C)c2nc[n-]/c(=N\OC(C)(C)C)c21 [Compound 1o] | < 0.12 µg/mL
33 | C=C1CC[C@@H]2C(C)(C)CCC[C@@]2(C)[C@@H]1CC/C(C)=C/Cn1c[n+](C)c2ncnc(N)c21 [Compound 2c, agelasine D] | 4.5 µg/mL
34 | CC(C)=CCC/C(C)=C/CC/C(C)=C/CC/C(C)=C/Cn1cnc2c(N)ncnc21 [Compound 3f, 9-Geranylgeranyladenine] | 0.77 µg/mL (≈ 1.89 µM)
35 | CC(C)=CCC/C(C)=C/CC/C(C)=C/CC/C(C)=C/Cn1cnc2ncnc(N)c21 [Compound 4a] | 2.3 µg/mL (≈ 5.64 µM)
36 | CONc1ncnc2ncn(C/C=C(\C)CC/C=C(\C)CC/C=C(\C)CCC=C(C)C)c12 [Compound 4b] | 0.28 µg/mL (≈ 0.64 µM)
37 | CC(C)=CCC/C(C)=C/CC/C(C)=C/CC/C(C)=C/Cn1cnc2ncnc(NOCc3ccccc3)c21 [Compound 4c] | 1.5 µg/mL (≈ 2.92 µM)
38 | CC(C)=CCC/C(C)=C/CC/C(C)=C/CC/C(C)=C/Cn1c[n+](C)c2ccccc21 [Compound 6] | < 0.12 µg/mL
39 | CC(C)=CCC/C(C)=C/CC/C(C)=C/CC/C(C)=C/C[n+]1cnc2c(ncn2C)c1N [Compound 7] | 11 µg/mL
40 | CC(C)=CCC/C(C)=C/CC/C(C)=C/CC/C(C)=C/Cn1cnc2c1c(=N)ncn2C [Compound 8] | 0.19 µg/mL (≈ 0.451 µM)
41 | CC1=C(CC/C(C)=C/CC/C(C)=C/Cn2cnc3c2C(=N)N(C)CN3C)C(C)(C)CCC1 [Compound 9] | 3.2 µg/mL (≈ 7.31 µM)

Same assay, conditions: Trypanosoma cruzi, TULAHUEN, MRC5, read-out: T. cruzi IC50

Row | Compound | IC50
42 | CC(C)=CCC/C(C)=C/CC/C(C)=C/CC/C(C)=C/Cn1cnc2c(N)ncnc21 [Compound 3f, 9-Geranylgeranyladenine] | < 1 µg/mL
43 | CC1=C(CC/C(C)=C/CC/C(C)=C/Cn2cnc3c2C(=N)N(C)CN3C)C(C)(C)CCC1 [Compound 9] | < 1 µg/mL

Same assay, conditions: Trypanosoma cruzi, TULAHUEN, MRC5; as printed in running text and table footnote; read-out: T. cruzi IC50

Row | Compound | IC50
44 | O=C(Cn1ccnc1[N+](=O)[O-])NCc1ccccc1 [Benznidazole, reference compound] | 0.25 µg/mL (≈ 0.961 µM)

System: not listed separately
Experiment: Cytotoxicity assay, resazurin
Assay type: cell-based
Settings: human, MRC-5 SV2 cells (human fetal lung fibroblasts)
Procedure: Cell viability was determined after addition of resazurin.

Row | Compound | IC50 at 72 h
45 | CC1=C(CC/C(C)=C/CC/C(C)=C/C[n+]2cn(C)c3nc[n-]/c(=N\OCc4ccccc4)c32)C(C)(C)CCC1 [Compound 1l] | 0.53 µg/mL (≈ 1 µM)
46 | CC1=C(CC/C(C)=C/CC/C(C)=C/C[n+]2cn(C)c3nc[n-]/c(=N\OC(C)(C)C)c32)C(C)(C)CCC1 [Compound 1m] | 0.48 µg/mL (≈ 0.972 µM)
47 | C=C1CC[C@H]2C(C)(C)CCC[C@]2(C)[C@H]1CC/C(C)=C/Cn1c[n+](C)c2nc[n-]/c(=N\OC)c21 [Compound 1n] | 4.5 µg/mL (≈ 9.96 µM)
48 | C=C1CC[C@H]2C(C)(C)CCC[C@]2(C)[C@H]1CC/C(C)=C/Cn1c[n+](C)c2nc[n-]/c(=N\OC(C)(C)C)c21 [Compound 1o] | 0.45 µg/mL (≈ 0.911 µM)
49 | CC(C)=CCC/C(C)=C/CC/C(C)=C/CC/C(C)=C/Cn1cnc2c(N)ncnc21 [Compound 3f, 9-Geranylgeranyladenine] | 2.7 µg/mL (≈ 6.62 µM)
50 | CC(C)=CCC/C(C)=C/CC/C(C)=C/CC/C(C)=C/Cn1cnc2ncnc(N)c21 [Compound 4a] | 2.6 µg/mL (≈ 6.38 µM)
51 | CONc1ncnc2ncn(C/C=C(\C)CC/C=C(\C)CC/C=C(\C)CCC=C(C)C)c12 [Compound 4b] | 2.1 µg/mL (≈ 4.8 µM)
52 | CC(C)=CCC/C(C)=C/CC/C(C)=C/CC/C(C)=C/Cn1cnc2ncnc(NOCc3ccccc3)c21 [Compound 4c] | 1.5 µg/mL (≈ 2.92 µM)
53 | CC(C)=CCC/C(C)=C/CC/C(C)=C/CC/C(C)=C/Cn1c[n+](C)c2ccccc21 [Compound 6] | 2 µg/mL
54 | CC(C)=CCC/C(C)=C/CC/C(C)=C/CC/C(C)=C/C[n+]1cnc2c(ncn2C)c1N [Compound 7] | 16 µg/mL
55 | CC(C)=CCC/C(C)=C/CC/C(C)=C/CC/C(C)=C/Cn1cnc2c1c(=N)ncn2C [Compound 8] | 2.3 µg/mL (≈ 5.45 µM)
56 | CC1=C(CC/C(C)=C/CC/C(C)=C/Cn2cnc3c2C(=N)N(C)CN3C)C(C)(C)CCC1 [Compound 9] | > 28 µg/mL

Same assay, conditions: human, read-out: MRC-5 IC50

Row | Compound | IC50 at 72 h
57 | C=C1CC[C@@H]2C(C)(C)CCC[C@@]2(C)[C@@H]1CC/C(C)=C/Cn1c[n+](C)c2ncnc(N)c21 [Compound 2c, agelasine D] | 6.7 µg/mL

Source: publication PMC6253839, “Screening of Agelasine D and Analogs for Inhibitory Activity against Pathogenic Protozoa; Identification of Hits for Visceral Leishmaniasis and Chagas Disease” (Molecules, 2009)
